In patent US20100189786A1, “CRYSTALLINE TOLTERODINE TARTARATE AND A PHARMACEUTICAL COMPOSITION CONTAINING THE SAME” (priority 2006, published 2010):

Assay: Measurement of particle size by the microscopic method
Format: physicochemical
Settings: no treatment; for weight of the material that would pass through the 250 μm sieve: share by weight; for particles smaller than 30 μm: share of all particles
Procedure: The drawings represent results of measurement of the particle size of the product prepared according to Example 2 by a microscopic method.
For all the batches, measurement of particle size was performed without any treatment using the microscopic method.

Cc1ccc(O)c([C@H](CCN(C(C)C)C(C)C)c2ccccc2)c1.O=C(O)C(O)C(O)C(=O)O [Batch I, R-tolterodine tartarate]
maximum crystal size: 623 μm | maximum crystal size (listed as batch I): 623 μm | weight of the material that would pass through the 250 μm sieve: 40.9% | weight of the material that would pass through the 250 μm sieve (listed as batch I): 40.9% | particles smaller than 30 μm: 91.95% | particles smaller than 30 μm (listed as batch I): 91.95%

Cc1ccc(O)c([C@H](CCN(C(C)C)C(C)C)c2ccccc2)c1.O=C(O)C(O)C(O)C(=O)O [Batch II, R-tolterodine tartarate]
maximum crystal size: 439 μm | maximum crystal size (listed as batch II): 439 μm | weight of the material that would pass through the 250 μm sieve: 47.2% | weight of the material that would pass through the 250 μm sieve (listed as batch II): 47.2% | particles smaller than 30 μm: 94.73% | particles smaller than 30 μm (listed as batch II): 94.73%

Cc1ccc(O)c([C@H](CCN(C(C)C)C(C)C)c2ccccc2)c1.O=C(O)C(O)C(O)C(=O)O [Batch III, R-tolterodine tartarate]
maximum crystal size: 702 μm | maximum crystal size (listed as batch III): 702 μm | weight of the material that would pass through the 250 μm sieve: 41.3% | weight of the material that would pass through the 250 μm sieve (listed as batch III): 41.3% | particles smaller than 30 μm: 89.29% | particles smaller than 30 μm (listed as batch III): 89.29%
